Measurements as given in US12035716B2, “Treatment for seeds disinfection” (VILMORIN & CIE, priority 2013, dated 2024).
Like-named read-outs stand apart in the source and are kept apart here.

What was measured:
[1] = test system: Acidovorax citrulli; settings: watermelon seeds
Excerpt: (§1) The vacuum cycles continue until floating seeds are no longer sinking. The floating seeds are then removed and discarded.

[2] = test system: Acidovorax citrulli; settings: melon seeds
Excerpt: as §1
The standard protocol can be obtained from the National Seed Health System, a program authorized by USDA-APHIS and administered by the Iowa State University Seed Science Center to accredit both private and public entities to perform certain activities needed to support the issuance of Federal phytosanitary certificates for the international movement of seed.

[3] = test system: CGMMV
Procedure: In this case, cucumber seeds have been obtained from a commercial seed lot, naturally infected by CGMMV in the production field.
The seeds were disinfected by standard method and by vacuum infiltration method. In this case, vacuum is applied at maximal pressure of 975-985 mbar from the beginning. […] The vacuum cycles continue until floating seeds are no longer sinking. The floating seeds are then removed and discarded. This process takes 15-20 minutes.
In this case two chemicals were used.
We also tested the effect of different concentration of Na-Dichloroisocyanurate applied by vacuum infiltration on CGMMV and germination (table II) treatment E is untreated control; treatment F is vacuum infiltration of Na-Dichloroisocyanurate 0.75%; treatment G is vacuum infiltration of Na-Dichloroisocyanurate 1.5% and treatment H is vacuum infiltration of Na-Dich loroisocyanurate 2.0%.
CGMMV was tested by ELISA assay according to method 7-026 of the international rules for seed testing annex to chapter 7: seed health testing methods; International Seed Testing Association, Zurich, Switzerland, 2010.

[4] = test system: cucumber seeds
Procedure: The germination test was performed according to Annex to chapter 5, International Rules for Seed Testing, International Seed Testing Association, Zurich, Switzerland, 1996.

[5] = test system: Acidovorax citrulli; settings: for BFB by PCR method: melon, 1.0% solution, 30 vacuum cycles, sinking fraction, 5000 seeds
Procedure: The process: 10 kg of seed are added to 45 liters of 1% or 2% Na-Dichloroisocyanurate. The seeds are mixed in the solution for 30 minutes and then washed in running water for 10 minutes and then dried to the original water content.
Three batches of 1 kilograms of this seed lot were put in a 10 liter glass vessel together with 3.0 liters of disinfecting solution comprising of Na-Dichloroisocyanurate at 1.0%. Thirty cycles of vacuum/de-vacuum (each cycle having a duration of 1 to 1.5 minutes) were applied with three different level: (i) level A: full vacuum up to 975-985, (ii) level B: medium level of 740-816 mbar, and (iii) level C: low level of 576-667 mbar. After 40 minutes (i.e. after achieving the 30 cycles of vacuum/de-vacuum) the floating fractions were discarded and the sinking fractions were collected, washed for 40 minutes and dried.
The standard protocol can be obtained from the National Seed Health System, a program authorized by USDA-APHIS and administered by the Iowa State University Seed Science Center to accredit both private and public entities to perform certain activities needed to support the issuance of Federal phytosanitary certificates for the international movement of seed. See page 69 of the May 2014 edition of the “Vegetable Crop Method-Reference Manual B” National Seed Health System available at http://www.seedhealth.org/files/pdfVegetable_Crops.pdf.

[6] = test system: CGMMV; settings: 1.33% solution, VI disinfection; for Seed health lab results, ELISA average count: cut-off 0.130, untreated 0.841
Procedure: In this case, a commercial cucumber seed lot (2 kg) naturally infected by CGMMV was treated. The infected seeds were put into a reactor containing 20 liters of Na-Dichloroisocyanurate at 1.33%. The vacuum/de-vacuum cycles (i.e. vacuum infiltration) were applied gradually starting at 500 mbar and increased by 50 mbar each cycle up to the maximum of 985 mbar. Then we continued vacuum/de-vacuum cycles at maximum vacuum pressure of 985 mbar for a total of 30 cycles. […] Both fractions were separately collected. This process took 45 minutes. CGMMV was tested by ELISA assay according to method 7-026 of the international rules for seed testing annex to chapter 7: seed health testing methods; International Seed Testing Association, Zurich, Switzerland, 2010.

[7] = test system: cucumber seeds; settings: 1.33% solution, VI disinfection, untreated 97
Procedure: The germination test was performed on petri dishes (TOP) at 24 C incubator and root protrusion was counted at 4 days after seeding (TOP at 4 d).

[8] = test system: cucumber seeds; remark: listed apart in the source
Procedure: CGMMV was tested by ELISA assay according to method 7-026 of the international rules for seed testing annex to chapter 7: seed health testing methods; International Seed Testing Association, Zurich, Switzerland, 2010. The germination test was performed on petri dishes (TOP) at 24 C incubator and root protrusion was counted at 4 days after seeding (TOP at 4 d).

[9] = test system: melon seeds; settings: vacuum infiltration 0.5%
[10] = test system: CGMMV; settings: watermelon seeds; vacuum infiltration 0.2% solution, 40 minutes, sinking fraction; 2000 seeds

SMILES: O=c1nc([O-])n(Cl)c(=O)n1Cl.[Na+] [Na-Dichloroisocyanurate]
- BFB infection after standard disinfection ([1]; standard disinfection process, 1.0% Na-Dichloroisocyanurate): still infected
- BFB by sweat box assay ([1]; vacuum infiltration, 0.2% solution, sinking fraction, 4200 seeds tested): negative
- BFB infection after standard disinfection ([2]; disinfected twice by standard protocol, 1% and 2%, 10 min): still heavily infested
- BFB by sweat-box assay ([2]; vacuum infiltration, 0.5% solution, floating fraction, 10,000 seeds): positive
- BFB health test (PCR, seedling grow-out, sweat box) ([2]; vacuum infiltration, 0.5% solution, sinking fraction, 40,000 seeds tested): None of the seeds was found infected
- ELISA assay result (rate of extinction at A405) ([3]; Na-Dichloroisocyanurate 0.4%, standard disinfection, negative control 0.13): 0.45
- ELISA assay result (rate of extinction at A405) ([3]; Na-Dichloroisocyanurate 0.4%, vacuum infiltration, negative control 0.13): 0.25
- ELISA assay result (rate of extinction at A405) ([3]; Na-Dichloroisocyanurate 0.75%, vacuum infiltration, untreated control 0.72, negative control 0.13): 0.17
- ELISA assay result (rate of extinction at A405) ([3]; Na-Dichloroisocyanurate 1.5%, vacuum infiltration, untreated control 0.72, negative control 0.13): 0.13
- ELISA assay result (rate of extinction at A405) ([3]; Na-Dichloroisocyanurate 2.0%, vacuum infiltration, untreated control 0.72, negative control 0.13): 0.16
- Germination % ([4]; Na-Dichloroisocyanurate 0.4%, standard disinfection): 96%
- Germination % ([4]; Na-Dichloroisocyanurate 0.4%, vacuum infiltration): 100%
- Germination % ([4]; Na-Dichloroisocyanurate 0.75%, vacuum infiltration): 100%
- Germination % ([4]; Na-Dichloroisocyanurate 1.5%, vacuum infiltration): 100%
- Germination % ([4]; Na-Dichloroisocyanurate 2.0%, vacuum infiltration): 100%
- BFB infection after standard disinfection ([5]; melon seeds, disinfected twice by standard protocol of example 5 (1% or 2%, 30 minutes)): still found to be BFB infected
- BFB by PCR method ([5]; level A full vacuum up to 975-985): negative
- BFB by PCR method ([5]; level B 740-816 mbar): negative
- BFB by PCR method ([5]; level C 576-667 mbar): negative
- Remarks (seed health) ([6]; floating fraction (5%)): Contami-
- Seed health lab results, Positive/total replicates ([6]; floating fraction (5%)): 9/10
- Seed health lab results, ELISA average count ([6]; floating fraction (5%)): 0.543
- Remarks (seed health) ([6]; sinking fraction (95%)): Clean
- Seed health lab results, Positive/total replicates ([6]; sinking fraction (95%)): 0/30
- Seed health lab results, ELISA average count ([6]; sinking fraction (95%)): 0.081
- % Germination TOP at 4 d ([7]; floating fraction (5%)): 62%
- % Germination TOP at 4 d ([7]; sinking fraction (95%)): 94%
- % Germination TOP at 4 d ([8]; seed lot A, VI disinfection 1.5%, heavy fraction): 100%
- % Germination TOP at 4 d ([8]; seed lot A, standard disinfection 2.5%): 100%
- % Germination TOP at 4 d ([8]; seed lot B, VI disinfection 1.5%, heavy fraction): 100%
- % Germination TOP at 4 d ([8]; seed lot B, standard disinfection 2.5%): 100%
- Germination ([9]; floating fraction, counted at 4 days): 96%
- Germination ([9]; floating fraction, counted at 7 days): 92%
- Germination ([9]; heavy fraction, counted at 4 days): 99%
- Germination ([9]; heavy fraction, counted at 7 days): 99%
- CGMMV by ELISA assay [10]: negative
